Results taken from patent US11655252B2, “Aminopyrimidinyl derivatives” (Pfizer Inc., priority 2020, dated 2023).

How the values were obtained:
JAK3 = JAK3 (Homo sapiens (Human), UniProt P52333); assay: JAK Family Caliper Enzyme Assay (JAK3); assay type: biochemical; conditions: recombinant human kinase domain, 1 mM ATP
Procedure: (§1) JAK Family Caliper Enzyme Assay
(§2) Compounds of the invention were evaluated by in vitro methods to determine their respective ability to inhibit the JAK kinases (TYK2, JAK1, JAK2, JAK3). Inhibitory activity was determined by using a microfluidic assay (LabChip 3000™ mobility shift technology, Caliper Life Science) to monitor phosphorylation of a synthetic peptide by the recombinant human kinase domain of each of the four members of the JAK family, JAK1, JAK2, JAK3 and TYK2. Reaction mixtures contained 1 μM of a fluorescently labeled synthetic peptide, a concentration less than the apparent Km, and 1 mM ATP.
(§3) Compounds in DMSO solution were added to a 384-well plate. Reaction mixtures contained 10 mM HEPES, pH 7.4, 10 mM MgCl2, 0.01% BSA, 0.0005% Tween 20™, 1 mM ATP and 1 μM peptide substrate. The JAK1 and TYK2 assays contained 1 μM of the IRStide peptide (5FAM-KKSRGDYMTMQID) and the JAK2 and JAK3 assays contained 1 μM of the JAKtide peptide (FITC-KGGEEEEYFELVKK). The assays were initiated by the addition of 20 nM JAK1, 1 nM JAK2, 1 nM JAK or 1 nM TYK2 enzyme and were incubated at room temperature for three hours for JAK1, 60 minutes for JAK2, 75 minutes for JAK3 or 135 minutes for TYK2. Enzyme concentrations and incubation times were optimized for each new enzyme preps and were modified slightly over time to ensure 20% to 30% phosphorylation. The assays were stopped with 15 μL of 180 mM HEPES, pH 7.4, 20 mM EDTA, and 0.2% Coating Reagent 3. The assay plates were placed on a Caliper Life Science LC3000 instrument, and each well was sampled using appropriate separation conditions to measure the unphosphorylated and phosphorylated peptide.
(§4) The data was collected using the HTS Well Analyzer software from Caliper Life Sciences. The data output for data analysis is the percent product converted calculated on peak height (Equation 1). % product converted=100*((product)/(product+substrate)) Equation 1: […]
The percent effect at each compound concentration was calculated based on the positive and negative control well contained within each assay plate (Equation 2). […]

TYK2 = TYK2 (Homo sapiens (Human), UniProt P29597); assay: JAK Family Caliper Enzyme Assay (TYK2); assay type: biochemical; conditions: recombinant human kinase domain, 1 mM ATP
Procedure: as §1, §2, §3, §4
(§5) The percent effect at each compound concentration was calculated based on the positive and negative control well contained within each assay plate (Equation 2). […] The negative control wells contained DMSO alone (at the same concentration as the compound wells) that was used to set the baseline activity in the assay (i.e., uninhibited JAK1, JAK2, JAK3 or TYK2). % effect=100*((sample well−negative control)/(positive control−negative control)) Equation 2: […]
(§6) The percent effect was plotted against the compound concentration compound. An unconstrained sigmoid curve was fitted using a 4 parameter logistic model and the compound concentration required for 50% inhibition (IC50) was determined (Equation 3). y=((max−min)/(1+((x/IC50)^s)))+min Equation 3: […]

[1] = test system: interferon alpha signalling (TYK2 and JAK1), pSTAT3 in human whole blood lymphocytes; assay: HWB INF Alpha Induced STAT3 Phosphorylation Assay; assay type: cell-based; conditions: Lymphocyte, IFN alpha 5000 U/ml, flow cytometry
Procedure: HWB INF Alpha Induced STAT3 Phosphorylation Assay
Compounds of this invention were assessed for their ability to inhibit interferon alpha signalling in a human whole blood flow cytometry assay. Interferon alpha signals through TYK2 and JAK1. Test articles were prepared as 30 mM stocks in 100% DMSO, and then diluted to 10 mM. An 11-point 3 dilution series was created in DMSO with a top concentration of […]. Further dilution was done by adding 4 μL of the above test article solutions into 96 μL of PBS with a top concentration of 400 μM. Human whole blood (HWB) was collected from healthy donors via vein puncture into Vacutainer™ collection tubes containing sodium heparin (Catalog No. 366480, Becton Dickinson, Franklin Lakes, N.J.). Blood was warmed to 37° C. prior to use. […]
Samples were transferred to 96-well U bottom plates (Falcon #353077) and flow cytometric analysis was performed on an LSRFortessa equipped with a HTS plate loader (BD Biosciences). […] Background fluorescence was defined using unstimulated cells and a gate was placed at the foot of the peak to include ˜0.5% gated population. […] Relative fluorescence unit (RFU), which measures the level of phospho STAT, was calculated by multiplying the percent positive population and its mean fluorescence. […] Inhibition curves and IC50 values were determined using the Prism version 7 software (GraphPad, La Jolla, Calif.).

JAK2 = JAK2 (Homo sapiens (Human), UniProt O60674); assay: JAK Family Caliper Enzyme Assay (JAK2); assay type: biochemical; conditions: recombinant human kinase domain, 1 mM ATP
Procedure: as §1, §2, §3, §4, §5, §6

JAK1 = JAK1 (Homo sapiens (Human), UniProt P23458); assay: JAK Family Caliper Enzyme Assay (JAK1); assay type: biochemical; conditions: recombinant human kinase domain, 1 mM ATP
Procedure: as §1, §2, §3, §4, §5, §6

[2] = In Vitro Human Hepatocyte Clearance Assay; assay type: in vitro ADME; conditions: cryopreserved human hepatocytes in suspension, 0.5 million cells/mL, 1 μM test compound, read-out: HHEP CLint, app (μL/min/million cells)
Procedure: In Vitro Human Hepatocyte Clearance Assay A high-throughput human hepatocyte substrate-depletion assay was performed in a 384-well formatted as described previously [Di et al., Eur. J. Med. Chem., 2012, 57, 441]. Briefly, the cryopreserved human hepatocytes were thawed and resuspended in Williams' E medium supplemented with HEPES and Na2CO3. The cells were counted using the trypan blue exclusion method. Test compounds were added to suspended human hepatocytes in Williams' E medium buffer and incubated at 37° C. in a humidified CO2 incubator (75% relative humidity, 5% CO2/air) for 4 hours. The final incubation contained 0.5 million cells/mL and 1 μM test compound in 15 μL total volume with 0.1% DMSO. At various time points (0, 3, 10, 30, 60, 120, and 240 minutes), an aliquot of the sample was taken and quenched with cold acetonitrile containing internal standard. The samples were centrifuged at 3000 rpm for 10 minutes at 4° C., and the supernatants were transferred to new plates, which were sealed before performing LC-MS/MS analysis. The apparent metabolic intrinsic clearance (CLint, met, app) was determined based on the substrate-depletion half-life estimated from the ratio of the peak area response of each compound to that of the internal standard, as described earlier [Di et al., Eur. J. Med. Chem., 2012, 57, 441].

[3] = test system: CXCL10 biomarker in Th2 stimulated ex vivo human skin; assay: Biomarker Modulation in Th2 Stimulated Ex Vivo Human Skin Assay; assay type: cell-based; conditions: 1% w/w formulation applied topically, qPCR
Procedure: Biomarker Modulation in Th2 Stimulated Ex Vivo Human Skin Assay Compounds of this invention were assessed for their ability to modulate CXCL10 biomarker in Th2 stimulated ex vivo human skin following topical application. […] Freshly excised human skin from surgery specimens was cut with a dermatome to 750 μm thickness and mounted in a 7 mm static Franz cell for tissue culture such that the upper surface of the skin was exposed to air in the Franz cell donor chamber, and the bottom (dermis) was exposed to Cornification medium. A total of two skin donors were used (n=6 per treatment per donor). Incubations were carried out in a standard tissue culture incubator. Compound was dissolved in the indicated formulation at a concentration of 1% w/w and added apically to the skin at 10 μL per sample (approximately 18 μL per cm^2) at 4-6 replicates per donor. After 16 h media was replaced with stimulation cocktail containing anti-CD3 mAb, anti-CD28 mAb, IL-2, IL-4, IL-33 and TSLP. Incubation was continued for additional 24 hr at 37° C. Then skin was harvested, treated with RNALater solution and processed for RNA extraction and qPCR that was run in duplicates. MMP12, CCL26, CXCL10 and Filaggrin may be measured. Results for each sample were normalized to its own GAPDH internal standard which was not appreciably affected by stimulus or compound. Fold change was normalized to untreated sample.

Sequence of JAK1 (P23458 875-1153): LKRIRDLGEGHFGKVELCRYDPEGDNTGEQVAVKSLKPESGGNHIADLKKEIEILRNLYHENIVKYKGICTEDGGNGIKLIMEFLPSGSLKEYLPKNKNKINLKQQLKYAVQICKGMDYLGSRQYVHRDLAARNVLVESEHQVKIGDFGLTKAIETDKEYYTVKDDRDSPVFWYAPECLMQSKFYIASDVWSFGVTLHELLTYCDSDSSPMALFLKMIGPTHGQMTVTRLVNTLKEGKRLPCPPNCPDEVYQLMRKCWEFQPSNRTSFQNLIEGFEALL
Sequence of JAK3 (P52333 822-1111): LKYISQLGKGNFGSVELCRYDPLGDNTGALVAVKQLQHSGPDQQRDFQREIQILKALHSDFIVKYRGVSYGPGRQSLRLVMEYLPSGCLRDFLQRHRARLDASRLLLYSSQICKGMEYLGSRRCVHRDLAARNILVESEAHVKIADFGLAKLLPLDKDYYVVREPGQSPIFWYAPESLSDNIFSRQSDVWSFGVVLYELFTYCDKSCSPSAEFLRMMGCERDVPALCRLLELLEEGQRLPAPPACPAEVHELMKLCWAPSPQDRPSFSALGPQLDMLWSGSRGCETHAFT
Sequence of TYK2 (P29597 897-1176): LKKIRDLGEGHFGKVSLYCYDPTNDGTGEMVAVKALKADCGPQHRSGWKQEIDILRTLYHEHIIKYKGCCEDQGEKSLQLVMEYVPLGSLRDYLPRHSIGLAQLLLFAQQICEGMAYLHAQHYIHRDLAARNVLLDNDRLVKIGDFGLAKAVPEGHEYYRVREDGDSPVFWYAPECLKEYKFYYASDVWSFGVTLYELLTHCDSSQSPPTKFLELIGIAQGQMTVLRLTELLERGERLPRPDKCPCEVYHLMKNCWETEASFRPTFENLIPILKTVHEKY
Sequence of JAK2 (O60674 849-1124): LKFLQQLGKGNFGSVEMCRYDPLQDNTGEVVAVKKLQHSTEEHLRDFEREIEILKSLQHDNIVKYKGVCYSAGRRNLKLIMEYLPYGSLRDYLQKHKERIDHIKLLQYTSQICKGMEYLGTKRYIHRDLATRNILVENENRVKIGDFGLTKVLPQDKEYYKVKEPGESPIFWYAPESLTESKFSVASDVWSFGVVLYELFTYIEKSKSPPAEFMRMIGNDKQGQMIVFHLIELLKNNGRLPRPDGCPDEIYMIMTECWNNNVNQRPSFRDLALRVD

Row | SMILES | IC50 (JAK3) | IC50 (TYK2) | IC50 (JAK2) | IC50 (JAK1) | IC50 [1] | hepatocyte CLint at 1 μM [2] | % inhibition CXCL10 [3]
1 | CCCn1cc(Nc2nccc(N3C[C@H]4CC[C@@H](C3)N4C(=O)[C@@H]3CC3(F)F)n2)cn1 [IA, ((S)-2,2-Difluorocyclopropyl)((1R,5S)-3-(2-((1-propyl-1H-pyrazol-4-yl)amino)pyrimidin-4-yl)-3,8-diazabicyclo[3.2.1]octan-8-yl)methanone] | > 9580 nM | 37 nM | 80 nM | 33 nM | 66 nM | 8.6 µL/min/1e6 cells | 94.2%
2 | O=C([C@@H]1CC1(F)F)N1[C@@H]2CC[C@H]1CN(c1ccnc(Nc3cnn(CCCO)c3)n1)C2 [ID] | > 9280 nM | 30 nM | 81 nM | 47 nM |  |  | 
3 | Cn1cc(Nc2nccc(N3C[C@H]4CC[C@@H](C3)N4C(=O)[C@@H]3CC3(F)F)n2)cn1 [II, ((S)-2,2-difluorocyclopropyl)-((1R,5S)-3-(2-((1-methyl-1H-pyrazol-4-yl)amino)pyrimidin-4-yl)-3,8-diazabicyclo[3.2.1]octan-8-yl)methanone, reference compound] |  |  |  |  |  | < 0.6 µL/min/1e6 cells | 72.4%

The next lines start with results.

Row | IC50 (JAK3) | IC50 (TYK2) | IC50 (JAK2) | IC50 (JAK1) | SMILES | IC50 [1] | hepatocyte CLint at 1 μM [2] | % inhibition CXCL10 [3]
4 | > 10000 nM | 82 nM | 223 nM | 59 nM | C[C@@H](O)Cn1cc(Nc2nccc(N3C[C@H]4CC[C@@H](C3)N4C(=O)[C@@H]3CC3(F)F)n2)cn1 [IB, ((S)-2,2-Difluorocyclopropyl)((1R,5S)-3-(2-((1-((R)-2-hydroxypropyl)-1H-pyrazol-4-yl)amino)pyrimidin-4-yl)-3,8-diazabicyclo[3.2.1]octan-8-yl)methanone] |  |  | 
5 |  | 65 nM | 139 nM | 44 nM | C[C@H](O)Cn1cc(Nc2nccc(N3C[C@H]4CC[C@@H](C3)N4C(=O)[C@@H]3CC3(F)F)n2)cn1 [IC, ((S)-2,2-Difluorocyclopropyl)((1R,5S)-3-(2-((1-((S)-2-hydroxypropyl)-1H-pyrazol-4-yl)amino)pyrimidin-4-yl)-3,8-diazabicyclo[3.2.1]octan-8-yl)methanone] |  |  | 
